From ChEMBL document CHEMBL2429811, “Novel selective and potent inhibitors of malaria parasite dihydroorotate dehydrogenase: discovery and optimization of dihydrothiophenone derivatives” (J Med Chem, 2013)

Experiments:
Plasmodium falciparum [1] = experiment: microbe, parasite or virus in culture; settings: Dd2, 72 h
Description: Antiplasmodial activity against chloroquine-resistant Plasmodium falciparum Dd2 infected in erythrocytes assessed as parasite growth inhibition after 72 hrs by SYBR green 1 dye-based fluorometric analysis

Plasmodium falciparum [2] = experiment: microbe, parasite or virus in culture; settings: 3D7, 72 h
Description: Antiplasmodial activity against chloroquine-sensitive Plasmodium falciparum 3D7 infected in erythrocytes assessed as parasite growth inhibition after 72 hrs by SYBR green 1 dye-based fluorometric analysis

[3] = biological target: T1, Dihydroorotate dehydrogenase (Plasmodium falciparum, UniProt Q54A96); experiment: Inhibition of Plasmodium falciparum DHODH (Phe158 to Ser569) expressed in Escherichia coli BL21 using dihydroorotate as substrate measured every 30 secs for 6 mins by DCIP dye-based assay
T1 sequence (Q54A96 whole entry): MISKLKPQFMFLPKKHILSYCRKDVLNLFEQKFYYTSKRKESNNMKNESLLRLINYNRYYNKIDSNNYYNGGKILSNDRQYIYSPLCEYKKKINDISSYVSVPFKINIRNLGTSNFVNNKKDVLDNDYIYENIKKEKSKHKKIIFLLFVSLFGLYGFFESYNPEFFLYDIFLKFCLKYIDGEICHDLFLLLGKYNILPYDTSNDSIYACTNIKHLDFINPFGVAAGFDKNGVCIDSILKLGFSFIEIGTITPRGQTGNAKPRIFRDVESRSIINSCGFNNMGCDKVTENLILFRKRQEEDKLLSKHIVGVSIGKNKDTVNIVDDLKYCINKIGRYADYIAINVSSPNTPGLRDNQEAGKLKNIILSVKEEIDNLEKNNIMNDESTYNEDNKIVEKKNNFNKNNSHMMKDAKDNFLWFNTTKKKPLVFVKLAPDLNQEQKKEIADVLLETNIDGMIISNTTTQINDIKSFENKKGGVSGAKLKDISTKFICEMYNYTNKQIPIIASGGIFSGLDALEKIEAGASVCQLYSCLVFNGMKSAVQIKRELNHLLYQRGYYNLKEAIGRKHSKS

[4] = biological target: Dihydroorotate dehydrogenase (quinone), mitochondrial (Homo sapiens, UniProt Q02127); experiment: Inhibition of N-terminal His10-tagged human DHODH (Met30 to Arg396) expressed in Escherichia coli BL21 (DE3) using dihydroorotate as substrate measured every 30 secs for 6 mins by DCIP dye-based assay
[5] = Half life in Sprague-Dawley rat at 10 mg/kg, po; type: ADME, organism-based; set-up: dose 10 mg/kg, route oral; settings: in vivo
[6] = Cmax in Sprague-Dawley rat at 10 mg/kg, po; type: ADME, organism-based; set-up: dose 10 mg/kg, route oral; settings: in vivo
[7] = Volume of distribution in Sprague-Dawley rat at 1 mg/kg, iv; type: ADME, organism-based; set-up: dose 1 mg/kg, route intravenous; settings: in vivo
[8] = Half life in Sprague-Dawley rat at 1 mg/kg, iv; type: ADME, organism-based; set-up: dose 1 mg/kg, route intravenous; settings: in vivo
[9] = Clearance in Sprague-Dawley rat at 1 mg/kg, iv; type: ADME, organism-based; set-up: dose 1 mg/kg, route intravenous; settings: in vivo
[10] = AUC (0 to last) in Sprague-Dawley rat at 10 mg/kg, po; type: ADME, organism-based; set-up: time 0 - last, dose 10 mg/kg, route oral; settings: plasma
[11] = Oral bioavailability in Sprague-Dawley rat at 10 mg/kg; type: ADME, organism-based; settings: in vivo
[12] = Tmax in Sprague-Dawley rat at 10 mg/kg, po; type: ADME, organism-based; set-up: dose 10 mg/kg, route oral; settings: in vivo

Sequence of Dihydroorotate dehydrogenase (quinone), mitochondrial (Q02127 whole entry): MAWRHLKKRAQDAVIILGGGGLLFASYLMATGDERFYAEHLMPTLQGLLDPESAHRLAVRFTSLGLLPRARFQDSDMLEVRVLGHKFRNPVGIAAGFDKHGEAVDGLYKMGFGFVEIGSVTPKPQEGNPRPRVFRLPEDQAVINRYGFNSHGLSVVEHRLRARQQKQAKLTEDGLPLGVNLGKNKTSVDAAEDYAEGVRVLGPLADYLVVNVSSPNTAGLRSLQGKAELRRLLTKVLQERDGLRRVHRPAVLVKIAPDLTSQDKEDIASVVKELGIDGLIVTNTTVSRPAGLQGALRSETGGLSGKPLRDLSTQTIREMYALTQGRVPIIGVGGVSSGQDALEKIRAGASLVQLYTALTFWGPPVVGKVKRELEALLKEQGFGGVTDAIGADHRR

| SMILES | IC50 (Plasmodium falciparum [1]) | IC50 (Plasmodium falciparum [2]) | IC50 [3] | IC50 [4] | half-life [5] | Cmax [6] | Vd [7] | half-life [8] | clearance [9] | AUC(0-t) [10] | bioavailability [11] | Tmax [12] |
| --- | --- | --- | --- | --- | --- | --- | --- | --- | --- | --- | --- | --- |
| CCOC(=O)C1=C(Nc2ccccc2)SCC1=O | 6.56 µM | 5.9 µM | > 50 µM | > 50 µM |  |  |  |  |  |  |  |  |
| CCOC(=O)C1=C(Nc2ccc(Cl)cc2)SCC1=O | > 20 µM | > 20 µM | 1.11 µM | > 50 µM |  |  |  |  |  |  |  |  |
| CCCCOC(=O)C1=C(Nc2ccc(C)c(C)c2)SCC1=O | 0.889 µM | 0.745 µM | 2.35 µM | > 50 µM |  |  |  |  |  |  |  |  |
| Cc1ccc(NC2=C(C(=O)OCC3CC3)C(=O)CS2)cc1C | 2.63 µM | 3.53 µM | 4.16 µM | > 50 µM |  |  |  |  |  |  |  |  |
| Cc1ccc(NC2=C(C(N)=O)C(=O)CS2)cc1C | > 20 µM | > 20 µM | > 50 µM | > 50 µM |  |  |  |  |  |  |  |  |
| CCNC(=O)C1=C(Nc2ccc(C)c(C)c2)SCC1=O | 6.27 µM | 8.47 µM | 39.5 µM | > 50 µM |  |  |  |  |  |  |  |  |
| CCCNC(=O)C1=C(Nc2ccc(C)c(C)c2)SCC1=O | 3.93 µM | 3.17 µM | 4.63 µM | 6.3 µM |  |  |  |  |  |  |  |  |
| CCCCNC(=O)C1=C(Nc2ccc(C)c(C)c2)SCC1=O | 2.78 µM | 2.7 µM | 5.73 µM | 4.42 µM |  |  |  |  |  |  |  |  |
| Cc1ccc(NC2=C(C(=O)NC3CC3)C(=O)CS2)cc1C | 5.53 µM | 6.62 µM | 19.1 µM | 4.11 µM |  |  |  |  |  |  |  |  |
| Cc1ccc(NC2=C(C(=O)NCC3CC3)C(=O)CS2)cc1C | 3.5 µM | 3.34 µM | 3.66 µM | 1.84 µM |  |  |  |  |  |  |  |  |
| COC(=O)C1=C(Nc2ccc3ccccc3c2)SCC1=O | 0.4 µM | 0.245 µM | 0.033 µM | > 50 µM |  |  |  |  |  |  |  |  |
| CCCOC(=O)C1=C(Nc2ccc3ccccc3c2)SCC1=O | 1.66 µM | 0.89 µM | 0.951 µM | > 50 µM |  |  |  |  |  |  |  |  |
| CCCCOC(=O)C1=C(Nc2ccc3ccccc3c2)SCC1=O | 5.23 µM | 8.38 µM | 35.6 µM | > 50 µM |  |  |  |  |  |  |  |  |
| CCNC(=O)C1=C(Nc2ccc3ccccc3c2)SCC1=O | 8.49 µM | 11.1 µM | 12.1 µM | > 50 µM |  |  |  |  |  |  |  |  |
| CCCNC(=O)C1=C(Nc2ccc3ccccc3c2)SCC1=O | 3.55 µM | 3.48 µM | > 50 µM | > 50 µM |  |  |  |  |  |  |  |  |
| CCCCNC(=O)C1=C(Nc2ccc3ccccc3c2)SCC1=O | 4.03 µM | 5.83 µM | > 50 µM | > 50 µM |  |  |  |  |  |  |  |  |
| O=C1CSC(Nc2ccc3ccccc3c2)=C1C(=O)NC1CC1 | 7.94 µM | 10.2 µM | 13.2 µM | > 50 µM |  |  |  |  |  |  |  |  |
| O=C1CSC(Nc2ccc3ccccc3c2)=C1C(=O)NCC1CC1 | > 20 µM | 12.4 µM | > 50 µM | > 50 µM |  |  |  |  |  |  |  |  |
| CCOC(=O)C1=C(Nc2ccc3ccccc3c2)OCC1=O | 0.018 µM | 0.015 µM | 0.006 µM | > 50 µM | 45 min | 0.609 µg/mL | 1.91 L/kg | 15.6 min | 5.08 L/h/kg | 0.791 µg·h/mL | 40% | 17.4 min |
| CCOC(=O)C1=C(Nc2ccc(C)c(C)c2)OCC1=O | 0.486 µM | 0.372 µM | 0.698 µM | > 50 µM |  |  |  |  |  |  |  |  |
| CCOC(=O)C1=C(Nc2cnc3ccccc3c2)OCC1=O | 0.517 µM | 0.492 µM | 0.079 µM | > 50 µM |  |  |  |  |  |  |  |  |
| CCOC(=O)C1=C(Nc2ccc3c(c2)CCCC3)OCC1=O | 0.076 µM | 0.057 µM | 0.018 µM | > 50 µM |  |  |  |  |  |  |  |  |
| CCOC(=O)C1=C(Nc2ccc3c(c2)CCC3)OCC1=O | 0.373 µM | 0.495 µM | 0.065 µM | > 50 µM |  |  |  |  |  |  |  |  |

| SMILES | IC50 (Plasmodium falciparum [1]) | IC50 (Plasmodium falciparum [2]) | IC50 [3] | IC50 [4] | half-life [5] | Cmax [6] | Vd [7] | half-life [8] | clearance [9] | AUC(0-t) [10] | bioavailability [11] | Tmax [12] |
| --- | --- | --- | --- | --- | --- | --- | --- | --- | --- | --- | --- | --- |
| CCOC(=O)C1=C(Nc2ccc(S(F)(F)(F)(F)F)cc2)OCC1=O | 1.06 µM | 0.68 µM | 0.168 µM | > 50 µM |  |  |  |  |  |  |  |  |
| CCOC(=O)C1=C(Nc2ccc(C(F)(F)F)cc2)OCC1=O | 0.867 µM | 0.607 µM | 0.142 µM | > 50 µM |  |  |  |  |  |  |  |  |
| CCOC(=O)C1=C(Nc2ccc(C(F)(F)F)cc2)SCC1=O | 1.04 µM | 0.946 µM | 0.367 µM | > 50 µM |  |  |  |  |  |  |  |  |
| CCOC(=O)C1=C(Nc2ccc(S(F)(F)(F)(F)F)cc2)SCC1=O | 0.697 µM | 0.307 µM | 0.559 µM | > 50 µM |  |  |  |  |  |  |  |  |
| CCOC(=O)C1=C(Nc2ccc(C(C)(C)C)cc2)SCC1=O | 0.767 µM | 1.53 µM | 0.227 µM | > 50 µM |  |  |  |  |  |  |  |  |
| CCOC(=O)C1=C(Nc2ccc(Cl)c(C(F)(F)F)c2)SCC1=O | 3.15 µM | 2.19 µM | 0.751 µM | > 50 µM |  |  |  |  |  |  |  |  |
| CCOC(=O)C1=C(Nc2ccc(Br)c(C(F)(F)F)c2)SCC1=O | 5.54 µM | 5.61 µM | 1.61 µM | > 50 µM |  |  |  |  |  |  |  |  |
| CCOC(=O)C1=C(Nc2cccc(C(F)(F)F)c2)SCC1=O | 13.6 µM | 14.4 µM | > 50 µM | > 50 µM |  |  |  |  |  |  |  |  |
| CCOC(=O)C1=C(Nc2cc(Cl)cc(Cl)c2)SCC1=O | 6 µM | 4.03 µM | 1.19 µM | > 50 µM |  |  |  |  |  |  |  |  |
| CCOC(=O)C1=C(Nc2ccc(C)c(C)c2)SCC1=O | 1.32 µM | 1.99 µM | 0.256 µM | > 50 µM |  |  |  |  |  |  |  |  |
| CCOC(=O)C1=C(Nc2ccc(C)c(F)c2)SCC1=O | 3.73 µM | 5.05 µM | 0.536 µM | > 50 µM |  |  |  |  |  |  |  |  |
| CCOC(=O)C1=C(Nc2ccc(Br)cc2C)SCC1=O | > 20 µM | > 20 µM | > 50 µM | > 50 µM |  |  |  |  |  |  |  |  |
| CCOC(=O)C1=C(Nc2ccc3c(c2)CCCC3)SCC1=O | 0.315 µM | 0.169 µM | 0.092 µM | 12 µM |  |  |  |  |  |  |  |  |
| CCOC(=O)C1=C(Nc2cnc3ccccc3c2)SCC1=O | 0.29 µM | 0.253 µM | 0.351 µM | > 50 µM |  |  |  |  |  |  |  |  |
| CCOC(=O)C1=C(Nc2ccc3ccccc3c2)SCC1=O | 0.057 µM | 0.077 µM | 0.02 µM | > 50 µM | 154 min | 0.0255 µg/mL | 3.35 L/kg | 18 min | 7.77 L/h/kg | 0.0393 µg·h/mL | 3.02% | 15 min |
| CCOC(=O)C1=C(Nc2ccc3c(c2)CCC3)SCC1=O | 1.57 µM | 1.4 µM | 0.851 µM | > 50 µM |  |  |  |  |  |  |  |  |
| CCOC(=O)C1=C(Nc2ccc3cc4ccccc4cc3c2)SCC1=O | 1.13 µM | 0.688 µM | 0.197 µM | > 50 µM |  |  |  |  |  |  |  |  |
| CCOC(=O)C1=C(Nc2ccc3c(c2)c2ccccc2n3CC)SCC1=O | 1.51 µM | 1.23 µM | 0.392 µM | > 50 µM |  |  |  |  |  |  |  |  |
| Cc1ccc(NC2=CC(=O)CS2)cc1C | 2.5 µM | 1.91 µM | 11.4 µM | > 50 µM |  |  |  |  |  |  |  |  |
| Cc1ccc(NC2=C(C(=O)O)C(=O)CS2)cc1C | > 20 µM | > 20 µM | > 50 µM | > 50 µM |  |  |  |  |  |  |  |  |
| O=C(O)C1=C(Nc2ccc3ccccc3c2)SCC1=O | 1.05 µM | 1.86 µM | 1.24 µM | > 50 µM |  |  |  |  |  |  |  |  |
| COC(=O)C1=C(Nc2ccc(C)c(C)c2)SCC1=O | 1.27 µM | 1.02 µM | 1.49 µM | > 50 µM |  |  |  |  |  |  |  |  |
| CCCOC(=O)C1=C(Nc2ccc(C)c(C)c2)SCC1=O | 1.69 µM | 2.11 µM | 4.03 µM | 11.6 µM |  |  |  |  |  |  |  |  |
